For one series, the target named is CYP1A2 (Homo sapiens (Human), UniProt P05177). Put plainly: Human Cytochrome P450 Inhibition Assay (Bactosomes). Format: in vitro ADME. The settings on record: recombinant enzyme. On the procedure: (§1) The ability of test compounds to inhibit five of the most relevant cytochrome P450 enzymes was measured by determination of the activity of cytochrome P450 enzymes in recombinant cytochrome preparations, called Bactosomes (Cypex Ltd, Dundee, Scotland UK DD2 1 NH), in the presence of a specific probe substrate. Bactosomes are a highly efficient and cost-effective source of recombinant CYP450s which have a higher specific activity of enzyme compared to other sources, such as liver microsomes. […] The following CYP450 isoforms were assayed: CYP1A2, CYP2C9, CYP2C19, CYP2D6 and CYP3A4. The study of CYP450 inhibition potential in Bactosomes is accepted as a valuable model permitting rapid prediction of potential drug-drug interactions in vivo (see, e.g., Weaver et al., 2003).
(§2) Bactosomes were obtained from a commercial source (Cypex, Scotland, UK). Test compounds were incubated with Bactosomes at 6 concentrations. Samples were incubated for 10 minutes, after which the reaction was stopped and the samples analysed by LC-MS/MS Multiple Reaction Monitoring (MRM) for the presence/amount of substrate probe.
(§3) CYP450 enzymes (final protein 75 pmol/mL for CYP1A2; 12.5 pmol/mL for CYP2C19; and 25 pmol/mL for CYP2C9, 2D6 and 3A4), 0.1 M phosphate buffer pH 7.4, probe and test compound (final concentration 50, 15.8, 5, 1.58, 0.5 and 0.158 μM; diluted from 10 mM stock solution to give a final DMSO concentration of 1%) were pre-incubated at 37° C. for 5 minutes. The reaction was initiated by the addition of 20 μL of 10 mM NADPH in phosphate buffer. The final incubation volume was 200 μL. The following control inhibitors were used for each CYP450 inhibition assay: CYP1A2: α-naphthoflavone; CYP2C9: sulfaphenazole; CYP2C19: tranylcypromine; CYP2D6: quinidine; CYP3A4: ketoconazole.
(§4) Each compound was incubated for 10 minutes at 37° C. The reactions were stopped by the addition of methanol (final composition 1:1, aqueous: methanol). The incubation plates were shaken, chilled at […] for 2 hours, and centrifuged at 3500 rpm for 15 minutes at 4° C. to precipitate the protein.

The target in the next series is CYP2C19 (Homo sapiens (Human), UniProt P33261). Described as above. Format: in vitro ADME. The settings on record: recombinant Bactosomes, 10 minutes. On the procedure:
as §1, §2, §3, §4

Another series addresses CYP2C9 (Homo sapiens (Human), UniProt P11712). Described as above. Format: in vitro ADME. The settings on record: recombinant Bactosomes, 10 minutes. On the procedure:
as §1, §2, §3, §4

The target in another series is CYP2D6 (Homo sapiens (Human), UniProt P10635). The description is as above. Format: in vitro ADME. The settings on record: recombinant Bactosomes, 10 minutes. On the procedure:
as §1, §2, §3, §4

Another series addresses CYP3A4 (Homo sapiens (Human), UniProt P08684). The series is described as above. The settings on record: recombinant Bactosomes, 10 minutes. Format: in vitro ADME. The method, then:
as §1, §2, §3, §4

Series [1] has as its system Thp1 human monocytic cells. The series can be described thus: Thp1 Monocyte ATP Production Assay (ATPlite). Format: cell-based. To be noted: Homo sapiens, THP-1; Thp1 cells, 24 hour incubation; 8-point concentration range from 100 μM to 100 nM; mean of 2 independent experiments. On the procedure: In vitro potency of test compounds was determined by incubation with Thp1 human monocytic cells and subsequent determination of Adenosine TriPhosphate (ATP) levels using firefly luciferase.
ATP is present in all metabolically active cells. When cells lose integrity, their ability to synthesise ATP is rapidly lost. […] See, e.g., Kang et al., 2015; Jiang et al., 2013. Levels of ATP can be monitored using a system based on firefly (Photinus pyralis) luciferase (see, e.g., Auld et al., 2009) using commercially available kits. A system known as ATPlite™ was using to measure effects of the test compounds on cellular viability in vitro. This one-step assay system is an adenosine triphosphate (ATP) monitoring system based on the production of light caused by the reaction of ATP from the cells with added luciferase and D-luciferin, as illustrated in the reaction scheme below:
Thp1 cells were plated at 112500 cells per well in 125 μL RPMI-1640 (no glucose) with 1% FBS in 96-well plates. Test compounds were prepared as 100 mM solutions in DMSO. These stock solutions were diluted in DMSO and then diluted 1000× in culture medium (RPMI) before being added directly to the wells so as to give the desired final compound concentration. After a 24 hour incubation at 37° C./5% CO2, ATPLite™ (Perkin Elmer) was added to each well (1:10 v/v, 10 μL). The plate was then incubated at room temperature for 5 minutes and the emitted light was quantified on Viewlux with a measurement time of 0.3 seconds and binning 4×4.
The average results for each test compound were expressed as a percent (%) of the average control value reflecting cell viability. The average values across the concentrations tested were then plotted and the IC50 for was calculated by fitting the data to a 4-parameter IC50 equation using software from Graf it (Erithacus Software). Each experiment was repeated twice and the data are presented as the mean IC50 from both experiments.
(In ATP-based viability assays light output follows the ATP content of the culture.)

The nature of series [2]: Human Hepatocyte Stability. Format: in vitro ADME. To be noted: pooled human hepatocytes, 1 μM, 60 minute incubation. The method, then:
(§5) Metabolic stability of test compounds was measured by determination of the rate of disappearance of the compound when incubated in the presence of human hepatocytes, a primary source of the most important enzymes (cytochrome P450s) involved in drug metabolism. Study of drug stability in the presence of primary hepatocytes is accepted as a valuable model permitting rapid prediction of in vivo drug stability.
(§6) Human hepatocytes were obtained from a commercial source and viability was assessed using a trypan blue solution prior to use. Test compounds (final concentration 1 μM, 0.1 DMSO, 0.9% acetonitrile) or a marker (diclofenac or diltiazem, final assay concentration 1 μM, 0.1% DMSO, 0.9% acetonitrile) were incubated with pooled hepatocytes for a 60 minute period and samples removed at up to 6 time points and analysed by LC-MS/MS for the presence/amount of test compounds.
(§7) Each compound was incubated for 0, 5, 15, 30, 45, or 60 minutes. The reactions were stopped by the addition of methanol containing an internal standard (1 μM Tolbutamide) at the appropriate time points, mixed and placed at −20° C. for 1 hour to quench and allow protein to precipitate. All samples were centrifuged (2500× g, 20 minutes, 4° C.). The aliquots were analysed using LC-MS/MS. Reactions were performed in duplicate at 37° C.
(§8) Data were processed, and the results plotted as In(concentration) vs. time. The elimination rate constant (slope of the regression line, k) was calculated using the following formula, where C(t) is the concentration at time t and C(0) is the starting concentration:
(§9) The half-life (t1/2) was calculated using the following formula: […]
(§10) The intrinsic clearance (Clint) was calculated using the following formula, where [cell] is the hepatocyte concentration in the assay: […]

The subject of the next series is human hepatocytes. Put plainly: Human Hepatocyte Stability. Format: in vitro ADME. To be noted: human hepatocytes. On the procedure: as §5, §6, §7, §8, §9, §10
Series [3] can be described thus: Aqueous solubility in FaSSIF. Format: physicochemical. The settings on record: kinetic from dmso stock, pH 6.5, 16 hours, room temperature. On the procedure:
Aqueous solubility was measured by equilibration of compounds with fasted state simulated intestinal fluid (FaSSIF) and quantified spectrophotometrically.
Preparation of blank FaSSIF: 0.21 g of sodium hydroxide (NaOH) pellets, 1.97 g of dihydrogen sodium phosphate (NaH2PO4.2H2O) and 3.09 g of sodium chloride (NaCl) were dissolved in 400 mL of deionised water. The pH was adjusted to 6.5 using 1 M hydrochloric acid and further deionised water added to a final volume of 500 mL.
Preparation of FaSSIF: 0.056 g of SIF Powder (containing sodium taurocholate and lecithin) (Pharses A G) was dissolved in 25 mL of blank FaSSIF and stirred until the powder was completely dissolved. The solution was allowed to stand for 2 hours during which it became opalescent; it was used within 24 hours. The final solution composition was characterised as follows: • Sodium taurocholate: 3 mM • Lecithin: 0.75 mM • Osmolarity: 270±10 mOsmol • pH: 6.5
The optical density was measured at the end of the incubation period for test compounds and a reference used to determine solubility. In brief, two samples were prepared for each determination: a reference sample consisting of a stock solution of test compound in DMSO diluted in system solution (a phosphate free, low absorption buffer) and propanol; and a test sample (prepared in triplicate) consisting of 0.5 mL FaSSIF spiked with test compound at 0.2 mM. Each sample was incubated at room temperature for 16 hours with constant shaking at 250 rpm. At the end of the incubation period, 0.3 mL of each sample was filtered through a pION filter plate (PION, Woburn MA), diluted 1:1 with propanol and scanned using UV spectrophotometry at Amax ([…]) using a Spectra Max Plus—Version 2.1000 (Molecular Devices, Sunnyvale, CA), with pSOL Explorer solubility determination software (pION, Woburn, MA).
FaSSIF solubility was calculated using the following formula:
[formula] • wherein: • “OD” is the optical density; • “Cr” is the concentration of the reference (33.4 μM); and • “molecular weight” is for the test compound (e.g., 381.44 for ABD735).

The next series concerns the target hERG (Homo sapiens (Human), UniProt Q12809). Put plainly: hERG Ion Channel binding assay (3H astemizole displacement). The settings on record: human, membranes of HEK293 cells stably expressing hERG, pH 7.4, probe 3H astemizole (1.5 nM); 30 μM; displacement of 3H astemizole, hERG-HEK293 membranes. The method, then:
The activity of the compounds against the hERG ion channel was tested using a binding assay in stably transfected Human Embryonic Kidney cells (hERG-HEK293). hERG-HEK293 cells were cultured in MEM medium (Invitrogen)+10% FBS, glutamine and non-essential amino acids at 37° C. To prepare membranes, cells were homogenised on ice, centrifuged at 650×g for 10 minutes at +4° C., and the resulting supernatant centrifuged at 48000×g for 10 minutes at +4° C. The pellet was resuspended in ice-cold 50 mM Tris-HCl buffer, 5 mM KCl (pH 8.5) and stored frozen in aliquots until use.
For binding assays, membranes were thawed, re-suspended in assay buffer (10 mM HEPES pH 7.4, 0.1% BSA, 5 mM potassium chloride, 0.8 mM magnesium chloride, 130 mM sodium chloride, 1 mM sodium-EGTA, 10 mM glucose) and incubated with ^3H astemizole (1.5 nM), and with or without test compound at 25° C. for 60 minutes. Binding was determined following filtration of the membranes and washing in Tris-HCl buffer by scintillation counting of ^3H astemizole.
The degree of binding of compounds to the hERG ion channel (%) was obtained by measuring the binding of ^3H astemizole and its displacement by test compound. A value of 0% indicates no binding and a value of 100% indicates complete displacement of the radiolabelled ligand.
A general note: Block of hERG is tested as a sign of cardiac risk.

As a reminder, the IC50 is the concentration at which inhibition is half-maximal. The hepatocyte CLint is a measure of how fast metabolising enzymes remove a compound, apart from limits set by blood flow. The solubility is the dissolved amount per volume that the medium holds. Higher therefore signals much dissolved substance. A word on the inhibition: it is the share of the control response that was lost under treatment. Lower therefore signals little suppression.

Converted amounts (≈) assume the structure as drawn.

CYP2D6, sequence (P10635 whole entry): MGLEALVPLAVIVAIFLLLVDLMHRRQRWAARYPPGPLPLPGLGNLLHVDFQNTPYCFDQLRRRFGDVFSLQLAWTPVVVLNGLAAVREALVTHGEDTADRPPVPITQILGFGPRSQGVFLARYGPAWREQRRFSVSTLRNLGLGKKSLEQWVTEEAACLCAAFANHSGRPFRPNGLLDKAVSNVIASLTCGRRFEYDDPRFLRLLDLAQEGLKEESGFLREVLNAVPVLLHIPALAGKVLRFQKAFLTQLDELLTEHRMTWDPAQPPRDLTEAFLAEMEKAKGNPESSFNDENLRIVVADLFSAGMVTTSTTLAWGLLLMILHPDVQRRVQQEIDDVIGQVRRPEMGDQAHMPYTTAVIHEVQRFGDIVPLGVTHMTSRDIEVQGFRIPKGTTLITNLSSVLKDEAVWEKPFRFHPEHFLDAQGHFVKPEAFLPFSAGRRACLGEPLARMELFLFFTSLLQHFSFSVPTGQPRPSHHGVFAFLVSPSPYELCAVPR
CYP2C9, sequence (P11712 whole entry): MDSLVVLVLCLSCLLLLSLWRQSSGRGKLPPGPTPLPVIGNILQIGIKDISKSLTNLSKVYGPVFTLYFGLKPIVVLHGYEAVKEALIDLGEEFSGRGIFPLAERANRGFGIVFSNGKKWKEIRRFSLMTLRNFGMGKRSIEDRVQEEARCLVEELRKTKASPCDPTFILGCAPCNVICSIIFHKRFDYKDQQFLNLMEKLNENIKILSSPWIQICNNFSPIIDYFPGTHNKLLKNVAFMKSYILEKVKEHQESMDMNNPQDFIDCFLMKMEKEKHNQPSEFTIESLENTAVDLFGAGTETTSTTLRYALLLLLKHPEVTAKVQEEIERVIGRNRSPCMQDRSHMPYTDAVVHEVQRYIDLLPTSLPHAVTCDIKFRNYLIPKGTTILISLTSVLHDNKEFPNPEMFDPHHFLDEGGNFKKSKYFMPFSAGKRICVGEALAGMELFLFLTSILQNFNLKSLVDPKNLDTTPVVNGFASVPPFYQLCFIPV
CYP3A4, sequence (P08684 whole entry): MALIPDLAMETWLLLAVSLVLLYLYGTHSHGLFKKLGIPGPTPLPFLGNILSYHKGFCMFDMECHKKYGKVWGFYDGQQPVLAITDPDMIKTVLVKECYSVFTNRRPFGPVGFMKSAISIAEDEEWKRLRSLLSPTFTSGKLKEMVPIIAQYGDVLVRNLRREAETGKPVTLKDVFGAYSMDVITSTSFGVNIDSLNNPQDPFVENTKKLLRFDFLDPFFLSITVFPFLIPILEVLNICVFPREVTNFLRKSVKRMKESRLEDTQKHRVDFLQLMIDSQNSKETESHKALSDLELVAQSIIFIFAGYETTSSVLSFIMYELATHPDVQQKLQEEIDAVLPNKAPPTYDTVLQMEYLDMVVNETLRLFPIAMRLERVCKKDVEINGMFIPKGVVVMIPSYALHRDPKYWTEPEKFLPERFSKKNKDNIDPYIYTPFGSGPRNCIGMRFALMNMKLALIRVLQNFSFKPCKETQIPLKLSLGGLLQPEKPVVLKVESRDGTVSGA
CYP1A2, sequence (P05177 whole entry, canonical isoform): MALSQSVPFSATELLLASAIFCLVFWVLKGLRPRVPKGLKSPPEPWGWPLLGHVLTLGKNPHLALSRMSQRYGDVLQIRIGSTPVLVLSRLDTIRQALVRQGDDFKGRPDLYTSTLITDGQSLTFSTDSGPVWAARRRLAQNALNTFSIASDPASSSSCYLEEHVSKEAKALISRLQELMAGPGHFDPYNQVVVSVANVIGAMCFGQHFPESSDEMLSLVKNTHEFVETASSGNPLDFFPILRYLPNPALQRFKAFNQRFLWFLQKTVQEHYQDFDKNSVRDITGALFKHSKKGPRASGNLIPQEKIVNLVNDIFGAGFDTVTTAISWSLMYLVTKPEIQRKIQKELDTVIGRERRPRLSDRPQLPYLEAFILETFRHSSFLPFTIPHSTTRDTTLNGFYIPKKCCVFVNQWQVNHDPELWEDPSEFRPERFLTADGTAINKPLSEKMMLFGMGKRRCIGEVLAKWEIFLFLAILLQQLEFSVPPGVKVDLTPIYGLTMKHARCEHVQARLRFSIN
CYP2C19, sequence (P33261 whole entry): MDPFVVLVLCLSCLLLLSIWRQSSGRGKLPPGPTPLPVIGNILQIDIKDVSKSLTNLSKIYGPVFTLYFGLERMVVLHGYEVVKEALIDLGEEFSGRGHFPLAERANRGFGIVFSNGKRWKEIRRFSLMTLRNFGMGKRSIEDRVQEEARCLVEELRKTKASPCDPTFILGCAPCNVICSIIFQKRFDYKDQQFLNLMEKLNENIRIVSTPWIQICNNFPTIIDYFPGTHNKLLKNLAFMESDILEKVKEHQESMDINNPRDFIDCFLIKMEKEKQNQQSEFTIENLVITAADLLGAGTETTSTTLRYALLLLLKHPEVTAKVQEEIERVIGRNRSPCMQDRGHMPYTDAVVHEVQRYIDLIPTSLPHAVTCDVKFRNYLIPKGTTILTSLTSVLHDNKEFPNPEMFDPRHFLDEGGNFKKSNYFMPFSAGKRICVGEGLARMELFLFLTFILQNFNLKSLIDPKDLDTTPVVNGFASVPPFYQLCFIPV
hERG, sequence (Q12809 whole entry): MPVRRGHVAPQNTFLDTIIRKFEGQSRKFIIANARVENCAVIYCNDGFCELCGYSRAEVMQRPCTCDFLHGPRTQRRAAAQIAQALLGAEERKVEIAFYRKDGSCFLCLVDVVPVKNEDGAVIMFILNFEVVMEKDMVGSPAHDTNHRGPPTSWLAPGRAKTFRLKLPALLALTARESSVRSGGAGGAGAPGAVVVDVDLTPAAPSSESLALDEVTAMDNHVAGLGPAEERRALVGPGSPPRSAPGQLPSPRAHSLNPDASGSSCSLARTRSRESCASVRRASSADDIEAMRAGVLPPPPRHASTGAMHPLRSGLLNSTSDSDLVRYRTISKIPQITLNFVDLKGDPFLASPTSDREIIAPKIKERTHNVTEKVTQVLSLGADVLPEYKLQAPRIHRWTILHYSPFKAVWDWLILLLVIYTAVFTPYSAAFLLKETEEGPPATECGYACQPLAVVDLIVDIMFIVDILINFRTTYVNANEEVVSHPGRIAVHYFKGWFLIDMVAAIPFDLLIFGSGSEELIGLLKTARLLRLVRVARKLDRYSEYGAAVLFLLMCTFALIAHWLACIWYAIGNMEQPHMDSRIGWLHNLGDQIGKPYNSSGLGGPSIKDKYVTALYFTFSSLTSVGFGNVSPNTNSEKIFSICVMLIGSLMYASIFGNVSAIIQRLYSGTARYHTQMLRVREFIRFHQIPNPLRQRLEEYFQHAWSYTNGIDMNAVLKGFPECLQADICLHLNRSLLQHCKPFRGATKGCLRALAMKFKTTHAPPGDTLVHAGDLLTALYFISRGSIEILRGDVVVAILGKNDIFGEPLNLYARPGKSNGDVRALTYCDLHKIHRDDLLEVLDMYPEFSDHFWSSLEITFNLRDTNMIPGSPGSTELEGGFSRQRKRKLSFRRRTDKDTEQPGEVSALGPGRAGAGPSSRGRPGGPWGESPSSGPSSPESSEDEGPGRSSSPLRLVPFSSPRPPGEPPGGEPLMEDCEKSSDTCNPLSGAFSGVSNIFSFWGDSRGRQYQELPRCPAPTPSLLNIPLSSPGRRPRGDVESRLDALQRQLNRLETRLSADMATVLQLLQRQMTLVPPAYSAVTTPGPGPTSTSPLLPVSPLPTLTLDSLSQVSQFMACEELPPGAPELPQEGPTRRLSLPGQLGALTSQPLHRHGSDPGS

As to `CC1(O)CCC(NS(=O)(=O)c2ccc(-c3ccc(C#N)cc3Cl)cc2)CC1` (stereo not drawn) [HMC-C-09-A, reference compound], the IC50 is 23 µM at CYP1A2; greater than 50 µM on CYP2C19; 34 µM on CYP2C9; greater than 50 µM on CYP2D6; 33 µM on CYP3A4.

`CC1(O)CCC(NS(=O)(=O)c2ccc(-c3cc(F)c(F)cc3F)cc2)CC1` (stereo not drawn) [HMC-C-10-B, reference compound]: the IC50 is greater than 16 µM on CYP1A2; 8.5 µM at CYP2C19; 2.4 µM on CYP2C9; greater than 16 µM at CYP2D6; 9.2 µM on CYP3A4.

For `CC1(O)CCC(NS(=O)(=O)c2ccc(-c3ccc(Cl)cc3C#N)c(Cl)c2)CC1` (stereo not drawn) [HMC-C-11-A, reference compound], the 50% inhibitory concentration (IC50) at CYP1A2 was determined as 11 µM; at CYP2C19, 5.1 µM; on CYP2C9, 2.7 µM; on CYP2D6, 9.3 µM; on CYP3A4, 12 µM.

In [1], `CC(=O)N1CCC(CS(=O)(=O)c2ccc(-c3cc(F)cc(F)c3)cc2)CC1` [NASMP-20, 1-(4-(((3′,5′-Difluoro-[1,1′-biphenyl]-4-yl)sulfonyl)methyl)piperidin-1-yl)ethan-1-one] returned an IC50 of 18.1 µM. Also, the hepatocyte CLint at 1 μM in series [2] is less than 3 µL/min/1e6 cells. The half-life at 1 μM in series [2] (read-out: Human t1/2) is greater than 7.67 h. In addition, the “metabolic stability (in words)” value in the series on human hepatocytes is on record as “exceptionally good stability”. Besides, the concentration in solution in [3] (solubility at 16 h) was 37 µg/mL (≈ 94 µM). Besides, at hERG, the inhibition at 60 min, 30 µM is 39%.
